Laboratory results as given in patent publication US5648369A, “Aminoalkylpyridine compounds which are useful as anitconvulsant drugs, excitatory amino acid inhibitors and NMDA sigma receptor antagonists” (priority 1991, dated 1997).

What was measured:
[1] = target: NMDA; experiment: Radioligand binding, NMDA, [3H]CGS19755
Text: (§1) EAAs are known to play important roles in excitatory neurotransmission in partial seizures as discussed earlier. […] Thus, several aminoalkylpyridines of this invention are effective antagonists of NMDA-receptor mediated EAA neurotransmission and function as noncompetitive NMDA antagonists and thus can be used to advantage in epilepsy, stroke and Alzheimer's disease.
(§2) EAAs are known to play important roles in excitatory transmission in partial seizures as discussed earlier. In general, antieptileptic drugs effective against MES seizures alter ionic transport across excitable membranes [Porter, R. J., and Pitlick, W. H., In "Basic and Clinical Pharmacology", 4th Edn., B. G. Katzung, Ed., Appleton and Lange, CA 1989, pp. 287-303]. Based on this rationale, the aminoalkylpyridines may be expected to attenuate EAA neurotransmission. Indeed, evaluation of potential displacement activity of #2 at all inhibitory and excitatory amino acid receptor types and subtypes using appropriate radioligands, indicate that this aminoalkylpyridine inhibits at 10 μM concentration, 49% of the binding of [^3 H]DTG, a ligand highly specific for the σ (sigma) receptor population of the PCP receptors on the NMDA receptor-ionophore complex (Table 6).
(§3) Values are expressed as the percent inhibition of specific binding and […]

[2] = target: Benzodiazepine; experiment: Radioligand binding, Benzodiazepine
Text: as §1, §2, §3

[3] = test system: endogenous L-glutamate release; experiment: Ca2+ dependent, K+ evoked release of endogenous L-glutamate in cerebrocortical slices; format: cell-based, guinea pig; conditions: Cavia porcellus; for activity at 50 µM / activity at 100 µM: means ± SEM, n = 4
[4] = test system: PCF; experiment: Radioligand binding, PCP, [3H]TCP
Text: as §1, §2, §3

[5] = test system: maximal electroshock seizures; experiment: Maximal electroshock seizure (MES) test in the rat, p.o.
Text: (§7) The Maximal Electroshock Seizure Test (MES): Maximal electroshock seizures are elicited with a 60 Hz alternating current of 50 mA intensity in mice and about 150 mA in rats (5-7 times that necessary to elicit minimal electroshock seizures), delivered for 0.2 sec via corneal electrodes. A drop of 0.9% saline is instilled in the eye prior to application of the electrodes in order to prevent the death of the animal. Abolition of the hind limb tonic extension component of the seizure is defined as protection and results are expressed as number of animals protected/number of animals tested.
This species will be subject of the complete anticonvulsant quantification test evaluation as described above, but after oral (gavage) administration of the candidate compound.
Neurological deficit in rats is examined by the positional sense test and gait and stance test. […] Inability to do so rapidly indicates a neurologic deficit. In the gait and stance test, a neurologic deficit is indicated by a circular or zigzag gait, ataxia, abnormal spread of the legs, abnormal body posture, tremor, hyperactivity, lack of exploratory behavior, somnolence, stupor, or catalepsy.

[6] = test system: MES and scMet seizures; experiment: Anticonvulsant screening, ASP classification (MES and scMet tests) in mice, i.p.; format: in vivo, mouse; conditions: ip; i.p. mouse; read-out: ASP Group Classification
[7] = test system: MK-801; experiment: Radioligand binding, MK-801, [3H]MK-801
Text: as §1, §2, §3

[8] = test system: subcutaneous pentylenetetrazol seizures; experiment: Subcutaneous pentylenetetrazol (Metrazole) seizure threshold test (scMet), mice, i.p.; format: in vivo; conditions: Mus musculus, ip
Experimental: (§4) The Subcutaneous Pentylenetetrazol (Metrazole) Seizure Threshold Test (scMet): A 0.5% solution of 85 mg/kg of pentylenetetrazol is administered subcutaneously in the posterior midline. The animal is observed for 30 minutes.

[9] = Rotorod ataxia test (neurotoxicity), mice, i.p.; conditions: mouse, in vivo, ip
Experimental: Neurotoxicity is evaluated in mice by the rotorod ataxia test. The animal is placed on a wooden rod of 11/8" diameter rotating at 6 rpm. Normal mice can remain on a rod rotating at this speed indefinitely.

[10] = target: Glycine (Homo sapiens, UniProt P23415); experiment: Radioligand binding, Glycine (inhibitory)
Text: (§5) EAAs are known to play important roles in excitatory neurotransmission in partial seizures as discussed earlier.
(§6) EAAs are known to play important roles in excitatory transmission in partial seizures as discussed earlier.

[11] = target: Glycine (Homo sapiens, UniProt Q05586); experiment: Radioligand binding, Glycine (excitatory), [3H]glycine
Text: as §5, §6

[12] = test system: Adenosine; experiment: Radioligand binding, Adenosine
Text: as §1, §2, §3

[13] = test system: subcutaneous pentylenetetrazol seizures; experiment: Subcutaneous pentylenetetrazol seizure threshold test (scMet), rat, p.o.; format: in vivo, rat (Sprague-Dawley); conditions: po
Experimental: as §4

[14] = test system: maximal electroshock seizures; experiment: Maximal electroshock seizure (MES) test, anticonvulsant quantification in mice, i.p.
Experimental: Screening Methodology to Determine Anticonvulsant Activity: In mice, i.p.: All compounds are solubilized in 0.5% methylcellulose. […] The compounds are administered intraperitoneally in a volume of 0.01 ml/gm to male Carworth Farms #1 mice weighing about 20 gm. All compounds are tested at least at three dose levels (30, 100 an 300 mg/kg) at 30 minutes and 4 hours after their administration.
as §7
Anticonvulsant Quantification in Mice, i.p.: The ED50 values are determined in the MES, scMet and rotorod ataxia test.

[15] = test system: Sigma; experiment: Radioligand binding, Sigma, [3H]DTG
Text: as §5, §6

[16] = test system: Kainate; experiment: Radioligand binding, Kainate, [3H]KA
Text: as §1, §2, §3

[17] = test system: GABAA; experiment: Radioligand binding, GABAA
Text: as §5, §6

[18] = target: GABAe (Homo sapiens, UniProt Q9UBS5); experiment: Radioligand binding, GABAe
Text: as §5, §6

[19] = test system: Quisqualate; experiment: Radioligand binding, Quisqualate, [3H]AMPA
Text: as §1, §2, §3

[20] = in vivo; set-up: species or system rat (Sprague-Dawley); conditions: rat, po
Text: Inability to do so rapidly indicates a neurologic deficit.

[21] = 10^-7 M, read-out: Percent Inhibition of specific binding (Average; N = 2)

Sequence of Glycine (Homo sapiens, UniProt P23415) (P23415 29-457): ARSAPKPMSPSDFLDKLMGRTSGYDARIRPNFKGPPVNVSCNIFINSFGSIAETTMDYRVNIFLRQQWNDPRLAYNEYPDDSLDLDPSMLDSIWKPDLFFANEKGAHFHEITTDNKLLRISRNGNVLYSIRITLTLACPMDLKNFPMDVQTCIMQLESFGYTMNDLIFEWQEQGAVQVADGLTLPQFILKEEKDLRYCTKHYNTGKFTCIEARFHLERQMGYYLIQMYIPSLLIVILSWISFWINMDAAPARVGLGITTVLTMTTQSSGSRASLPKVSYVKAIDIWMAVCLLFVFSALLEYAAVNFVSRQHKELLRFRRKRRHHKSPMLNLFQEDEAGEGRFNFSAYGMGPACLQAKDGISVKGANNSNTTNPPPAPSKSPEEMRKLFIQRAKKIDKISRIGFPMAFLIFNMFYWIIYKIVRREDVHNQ
Sequence of Glycine (Homo sapiens, UniProt P23415) (P48167 23-497 partner): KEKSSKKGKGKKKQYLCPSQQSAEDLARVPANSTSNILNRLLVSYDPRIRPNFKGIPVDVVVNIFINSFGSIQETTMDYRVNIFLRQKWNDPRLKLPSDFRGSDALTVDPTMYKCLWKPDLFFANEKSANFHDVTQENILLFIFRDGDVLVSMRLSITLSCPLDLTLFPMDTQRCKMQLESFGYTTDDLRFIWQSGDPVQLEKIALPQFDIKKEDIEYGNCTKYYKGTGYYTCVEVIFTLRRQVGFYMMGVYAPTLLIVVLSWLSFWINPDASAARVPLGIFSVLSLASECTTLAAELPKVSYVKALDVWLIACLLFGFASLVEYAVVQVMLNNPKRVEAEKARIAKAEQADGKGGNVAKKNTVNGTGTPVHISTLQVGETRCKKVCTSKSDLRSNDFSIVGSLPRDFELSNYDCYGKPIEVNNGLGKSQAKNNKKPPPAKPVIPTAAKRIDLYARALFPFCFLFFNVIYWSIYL
Sequence of GABAe (Q9UBS5 15-961 limits assumed): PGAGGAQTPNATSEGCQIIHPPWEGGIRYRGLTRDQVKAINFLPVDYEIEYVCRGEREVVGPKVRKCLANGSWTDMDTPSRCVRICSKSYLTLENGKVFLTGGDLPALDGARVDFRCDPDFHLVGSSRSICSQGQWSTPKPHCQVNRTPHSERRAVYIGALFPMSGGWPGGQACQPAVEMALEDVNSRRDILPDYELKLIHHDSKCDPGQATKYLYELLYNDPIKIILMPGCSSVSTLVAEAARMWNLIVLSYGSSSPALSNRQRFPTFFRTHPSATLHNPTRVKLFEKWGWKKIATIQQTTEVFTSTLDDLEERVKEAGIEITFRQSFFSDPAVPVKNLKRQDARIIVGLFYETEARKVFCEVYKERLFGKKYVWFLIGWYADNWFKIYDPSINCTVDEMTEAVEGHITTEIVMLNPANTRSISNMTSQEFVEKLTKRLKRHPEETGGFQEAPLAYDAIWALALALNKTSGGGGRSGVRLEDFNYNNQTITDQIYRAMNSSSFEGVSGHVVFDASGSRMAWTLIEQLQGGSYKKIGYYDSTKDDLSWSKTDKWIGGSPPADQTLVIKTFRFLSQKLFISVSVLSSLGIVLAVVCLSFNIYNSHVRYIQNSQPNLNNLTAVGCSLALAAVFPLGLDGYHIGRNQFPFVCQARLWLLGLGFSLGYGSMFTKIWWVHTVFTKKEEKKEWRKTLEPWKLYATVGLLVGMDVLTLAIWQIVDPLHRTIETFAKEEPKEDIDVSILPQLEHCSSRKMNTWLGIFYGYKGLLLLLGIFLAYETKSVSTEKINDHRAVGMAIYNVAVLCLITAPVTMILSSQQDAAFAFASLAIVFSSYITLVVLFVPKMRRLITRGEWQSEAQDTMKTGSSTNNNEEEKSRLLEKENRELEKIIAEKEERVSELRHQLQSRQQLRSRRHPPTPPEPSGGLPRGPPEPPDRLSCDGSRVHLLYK
Sequence of GABAe (O75899 42-941 partner): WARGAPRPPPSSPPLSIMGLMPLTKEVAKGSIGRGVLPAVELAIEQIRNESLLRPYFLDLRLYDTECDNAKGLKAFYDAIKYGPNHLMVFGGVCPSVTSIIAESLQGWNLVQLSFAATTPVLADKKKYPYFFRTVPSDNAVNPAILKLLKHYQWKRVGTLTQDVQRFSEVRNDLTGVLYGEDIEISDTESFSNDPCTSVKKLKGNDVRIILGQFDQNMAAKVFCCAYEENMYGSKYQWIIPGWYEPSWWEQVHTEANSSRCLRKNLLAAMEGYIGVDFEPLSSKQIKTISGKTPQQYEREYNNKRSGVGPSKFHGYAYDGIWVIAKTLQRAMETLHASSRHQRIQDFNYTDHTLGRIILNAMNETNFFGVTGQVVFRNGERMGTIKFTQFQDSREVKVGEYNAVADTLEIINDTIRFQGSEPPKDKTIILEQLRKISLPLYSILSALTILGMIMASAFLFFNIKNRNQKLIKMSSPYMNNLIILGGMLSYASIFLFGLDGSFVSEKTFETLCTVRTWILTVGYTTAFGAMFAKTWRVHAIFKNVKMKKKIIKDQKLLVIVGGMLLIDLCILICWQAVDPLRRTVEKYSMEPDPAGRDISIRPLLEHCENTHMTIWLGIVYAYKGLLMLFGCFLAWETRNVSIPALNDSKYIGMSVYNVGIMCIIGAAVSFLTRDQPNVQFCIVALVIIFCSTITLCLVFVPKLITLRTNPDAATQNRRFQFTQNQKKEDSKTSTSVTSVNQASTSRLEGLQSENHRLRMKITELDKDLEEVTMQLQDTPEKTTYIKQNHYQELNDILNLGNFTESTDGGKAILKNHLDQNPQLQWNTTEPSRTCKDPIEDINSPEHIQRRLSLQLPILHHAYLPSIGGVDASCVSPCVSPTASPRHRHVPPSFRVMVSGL

O=C(O)C1CN(CCCP(=O)(O)O)CCN1 (stereo not drawn) [CPP, reference compound]
Ki ([1]; reference compound, [3H]CGS19755): 359 nM

O=C1CN=C(c2ccccc2Cl)c2cc([N+](=O)[O-])ccc2N1 [Clonazepam, reference compound]
Ki ([2]; reference compound, Benzodiazepine): 3.4 nM

CC(Nc1ccc(Cl)cc1)c1ccncc1 (stereo not drawn) [Compound 2, 1-(4-Chloroanilino)-1-(4-pyridyl)-ethan]
activity at 50 µM ([3]; 50 μM (K+), 30 mM K+, P < 0.001 vs K+ alone): 121 ± 8% | activity at 50 µM ([3]; 50 μM (basal)): 101 ± 6% | activity at 100 µM ([3]; 100 μM (K+), 30 mM K+, P < 0.001 vs K+ alone): 114 ± 4% | activity at 100 µM ([3]; 100 μM (basal)): 99 ± 9% | inhibition at 50 µM ([3]; 50 μM): 74% | inhibition at 100 µM ([3]; 100 μM): 80% | activity at the [3H]TCP-binding receptor sites / PCP receptors (in words) [4]: no activity | Percent Inhibition of specific binding (Average; N = 2) ([4]; 1.0^-5 M): -1.8% | Percent Inhibition of specific binding (Average; N = 2) ([4]; 10^-7 M): -3.8% | ED50 ([5]; Rattus norvegicus, po, read-out: ED50 MES): 22.9 mg/kg | responders at 50 mg/kg ([5]; Rattus norvegicus, po, read-out: Percent protection at 50 mg/kg dose, p.o., in the MES Test in the rat): 75 to 100% | P.I. MES (TD50/ED50) ([5]; rat, p.o.): > 20.53 | minimal effective dose [6]: < 100 mg/kg | activity at the [3H]MK-801-binding receptor sites (in words) [7]: no activity | Percent Inhibition of specific binding (Average; N = 2) ([7]; 1.0^-5 M): 17.0% | Percent Inhibition of specific binding (Average; N = 2) ([7]; 10^-7 M): 13.5% | ED50 [8]: < 150 mg/kg | TD50 [9]: 160 mg/kg | Percent Inhibition of specific binding (Average; N = 2) ([2]; 1.0^-5 M): -7.8% | Percent Inhibition of specific binding (Average; N = 2) ([2]; 10^-7 M): -4.7% | Percent Inhibition of specific binding (Average; N = 2) ([10]; 1.0^-5 M): -1.4% | inhibition at 0.1 µM [10, 21]: -1.8% | Percent Inhibition of specific binding (Average; N = 2) ([11]; 1.0^-5 M): -4.0% | inhibition at 0.1 µM [11, 21]: 8.7% | Percent Inhibition of specific binding (Average; N = 2) ([12]; 1.0^-5 M): -15.9% | Percent Inhibition of specific binding (Average; N = 2) ([12]; 10^-7 M): -15.2% | ED50 [13]: > 250 mg/kg | ED50 ([14]; Mus musculus, ip, read-out: ED50 MES): 53.7 mg/kg | P.I. MES (TD50/ED50) ([14]; mice, i.p.): 2.98 | inhibition of the binding of [3H]DTG ([15]; 10 μM concentration): 49% | Percent Inhibition of specific binding (Average; N = 2) ([15]; 1.0^-5 M): 49.1% | Percent Inhibition of specific binding (Average; N = 2) ([15]; 10^-7 M): 12.9% | inhibition of the binding of [3H]DTG (in words) ([15]; σ receptor population): inhibit selectively | Percent Inhibition of specific binding (Average; N = 2) ([16]; 1.0^-5 M): -7.3% | Percent Inhibition of specific binding (Average; N = 2) ([16]; 10^-7 M): -3.7% | Percent Inhibition of specific binding (Average; N = 2) ([17]; 1.0^-5 M): 1.2% | Percent Inhibition of specific binding (Average; N = 2) ([17]; 10^-7 M): 6.5% | Percent Inhibition of specific binding (Average; N = 2) ([18]; 1.0^-5 M): -4.9% | inhibition at 0.1 µM [18, 21]: 3.6% | Percent Inhibition of specific binding (Average; N = 2) ([19]; 1.0^-5 M): 4.3% | Percent Inhibition of specific binding (Average; N = 2) ([19]; 10^-7 M): 4.2% | Percent Inhibition of specific binding (Average; N = 2) ([1]; 1.0^-5 M): -6.6% | Percent Inhibition of specific binding (Average; N = 2) ([1]; 10^-7 M): 3.5% | TD50 [20]: > 470 mg/kg

NCc1cc(=O)[nH]o1 [Muscimol, reference compound]
Ki ([17]; reference compound, GABAA): 2.8 nM

O=C1C[C@@H]2OCC=C3CN4CC[C@]56c7ccccc7N1[C@H]5[C@H]2[C@H]3C[C@H]46 [Strychnine Nitrate, reference compound]
Ki [10]: 33.5 nM
